From patent publication US20020169394A1, “Integrated tissue poration, fluid harvesting and analysis device, and method therefor” (priority 1993, published 2002)

Legend:
subjects left forearm = assay: Lidocaine delivery through porated stratum corneum with ultrasound; numbness assessed by rubbing a 30 gauge wire across the test site; format: in vivo, human
Excerpt: A drawing of an illustrative delivery apparatus 300 is shown in FIG. 50, wherein the apparatus comprises a housing 304 enclosing a reservoir 308 for holding a drug-containing solution 312. The top portion of the housing comprises an ultrasonic transducer 316 for providing sonic energy to aid in transporting the drug-containing solution through micropores; 320 in the stratum corneum 324. A port 328 in the ultrasonic transducer permits application of pressure thereto for further aiding in transporting the drug-containing solution through the micropores in the stratum corneum. The delivery apparatus is applied to a selected area of an individual's skin such that it is positioned over at least one, and preferably a plurality, of micropores. An adhesive layer 332 attached to a lower portion of the housing permits the apparatus to adhere to the skin such that the drugcontaining solution in the reservoir is in liquid communication with the micropores.
Five subjects were tested for the effectiveness of drug delivery using poration together with ultrasound. The experiment used two sites on the subjects left forearm about three inches apart, equally spaced between the thumb and upper arm. The site near the thumb will be referred to as site 1 the site furthest from the thumb will be referred to as site 2. […] Site 2 was porated with 24 holes spaced 0.8 millimeters apart in a grid contained within a 1 cm diameter circle. The micropores in Site 2 were generated according to the procedure of Example 6. […] Ultrasound applications were made with a custom manufactured Zevex ultrasonic transducer assembly set in burst mode with 0.4 Volts peak to peak input with 1000 count bursts occurring at 10 Hz with a 65.4 kHz fundamental frequency, i.e., a pulse modulated signal with the transducer energized for 15 millisecond bursts, and then turned off for the next 85 milliseconds. The measured output of the amplifier to the transducer was 0.090 watts RMS.
Experiments were executed on both sites, Site 1 for 10 to 12 minute duration and Site 2 for two 5 minute duration intervals applied serially to the same site. Both sites were assessed for numbness using a scale of 10 to 0, where 10 indicated no numbness and 0 indicated complete numbness as reported by the test subjects.

[1] = system: human cadaver skin samples (stratum corneum); format: in vitro ADME
Protocol: Modulated sonic energy and chemical enhancers were tested for their ability to control transdermal flux on human cadaver skin samples. In these tests, the epidermal membrane had been separated from the human cadaver whole skin by the heat-separation method of Example 1. The epidermal membrane was cut and placed between two halves of the permeation cell with the stratum corneum facing either the upper (donor) compartment or lower (receiver) compartment. Modified Franz cells were used to hold the epidermis, as shown in FIG. 2 of U.S. Pat. No. 5,445,611. Each Franz cell consists of an upper chamber and a lower chamber held together with one or more clamps. The lower chamber has a sampling port through which materials can be added or removed. A sample of stratum corneum is held between the upper and lower chambers when they are clamped together. The upper chamber of each Franz cell is modified to allow an ultrasound transducer to be positioned within 1 cm of the stratum corneum membrane. Methylene blue solution was used as an indicator molecule to assess the permeation of the stratum corneum. A visual record of the process and results of each experiment was obtained in a time stamped magnetic tape format with a video camera and video cassette recorder (not shown). Additionally, samples were withdrawn for measurement with an absorption spectrometer to quantitate the amount of dye which had traversed the stratum corneum membrane during an experiment. Chemical enhancers suitable for use could vary over a wide range of solvents and/or cell envelope disordering compounds as noted above. The specific enhancer utilized was: ethanol/glycerol/water/glycerolmonooleate/methyl laurate in 50/30/15/2.5/2.5 volume ratios. The system for producing and controlling the sonic energy included a programmable 0-30 MHz arbitrary waveform generator (Stanford Reserach Systems Model DS345), a 20 watt 0-30 MHz amplifier, and two unfocused ultrasound immersion transducers having peak resonances at 15 and 25 MHz, respectively. […]

[2] = Site 2 porated plus ultrasound, after the second application

| visual evidence of dye flux through the stratum corneum [1] | visually detectable permeation of the stratum corneum [1] | level of dye solution in 2 ml of receiver medium (no visual indication of dye flux) ([1]; human, 5 min) | Structure (SMILES) | numbness, scale of 10 to 0 (10 no numbness, 0 complete numbness) (subjects left forearm; Site 1 control, no micro-poration or sonic energy, at approximately 20 minutes) | numbness, scale of 10 to 0 (10 no numbness, 0 complete numbness) (subjects left forearm; Site 1 control: lidocaine and enhancer solution, no micro-poration or sonic energy, at 10 to 12 minutes, 5 subjects) | diameter of totally numb circle (subjects left forearm; Site 2 porated plus ultrasound, after the second 5 minute application) | diameter of numb oval pattern parallel to the forearm (subjects left forearm; [2]) [cm] | diameter of numb oval pattern perpendicular to the forearm (subjects left forearm; [2]) [cm] | numbness, scale of 10 to 0 (10 no numbness, 0 complete numbness) (subjects left forearm; Site 2 porated with 24 holes plus low level ultrasound, in the 1 cm circle containing the porations, first 5 minute application) |
| --- | --- | --- | --- | --- | --- | --- | --- | --- | --- |
| – | – | – | CCN(CC)CC(=O)Nc1c(C)cccc1C [lidocaine] | 3 | 7 to 10 | about 12 cm | 2 to 6 | 2 to 2.5 | 0 to 1 |
| No visual evidence of dye flux | no visually detectable permeation | < 0.0015 % (v/v) | CN(C)c1ccc2nc3ccc(=[N+](C)C)cc-3sc2c1 [methylene blue] | – | – | – | – | – | – |
